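1) Cells in 96-well plates. 2) Compound, 48 h, 5 concentrations. 3) Linear interpolation between surrounding doses. 4) Unreached endpoint = highest concentration. At the GI50, growth is halved. TGI marks complete inhibition of growth.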
Columns and labels:
Test in all cases: NCI-60 cell line screen, 48 h
[1] = system: MDA-MB-231 breast
[2] = system: BT-549 breast
[3] = system: CAKI-1 renal
[4] = system: HS 578T breast
[5] = system: M14 melanoma
[6] = system: A549 NSCLC
[7] = system: SK-MEL-5 melanoma
[8] = system: MDA-MB-468 breast
[9] = system: NCI-H226 lung
[10] = system: ACHN renal
[11] = system: MALME-3M melanoma
[12] = system: HT29 colon
[13] = system: NCI-H522 lung
[14] = system: SK-MEL-28 melanoma
[15] = system: MOLT-4 leukemia
[16] = system: T-47D breast
[17] = system: HCT-15 colon
[18] = system: SR leukemia
[19] = system: TK-10 renal
[20] = system: SNB-75 CNS
[21] = system: KM12 colon
[22] = system: OVCAR-3 ovarian
[23] = system: SK-OV-3 ovarian
[24] = system: RPMI-8226 leukemia
[25] = system: OVCAR-4 ovarian
[26] = system: SK-MEL-2 melanoma
[27] = system: NCI-H23 lung
[28] = system: IGROV1 ovarian
[29] = system: HCT-116 colon

`COc1cccc(/C=N/NC(=O)c2ccc3nc(-c4ccc(Cl)cc4)[nH]c3c2)c1O` showed a GI50 [1] of 988 nM, a TGI [1] of 3150 nM and a GI50 [2] of 673 nM. For the same molecule, the TGI [2] was 1790 nM, the GI50 [3] was 1010 nM and the TGI [3] was 3510 nM. The GI50 [4] was 705 nM, the TGI [4] was 2900 nM and the GI50 [5] was 1010 nM. It also gave a TGI [5] of 4280 nM, a GI50 [6] of 3680 nM and a TGI [6] of 14800 nM. The GI50 [7] was 772 nM, the TGI [7] was 2090 nM and the GI50 [8] was 611 nM. For the same molecule, the TGI [8] was 1450 nM, the GI50 [9] was 1650 nM and the TGI [9] was 4000 nM. It also gave a GI50 [10] of 1320 nM, a TGI [10] of 6250 nM and a GI50 [11] of 1360 nM. For the same molecule, the TGI [11] was 2890 nM, the GI50 [12] was 4170 nM and the TGI [12] was 19300 nM. The GI50 [13] was 1170 nM, the TGI [13] was 2810 nM and the GI50 [14] was 1000 nM. The TGI [14] was 2930 nM, the GI50 [15] was 421 nM and the TGI [15] was 2460 nM. The GI50 [16] was 389 nM, the TGI [16] was 2010 nM and the GI50 [17] was 1310 nM. For the same molecule, the TGI [17] was > 40000 nM, the GI50 [18] was 369 nM and the TGI [18] was 3750 nM. The GI50 [19] was 4070 nM, the TGI [19] was 15900 nM and the GI50 [20] was 231 nM. For the same molecule, the TGI [20] was 1380 nM, the GI50 [21] was 715 nM and the TGI [21] was 1880 nM. For the same molecule, the GI50 [22] was 353 nM, the TGI [22] was 1050 nM and the GI50 [23] was 1030 nM. It also gave a TGI [23] of 2790 nM, a GI50 [24] of 2220 nM and a TGI [24] of 5540 nM. For the same molecule, the GI50 [25] was 728 nM, the TGI [25] was 3180 nM and the GI50 [26] was 378 nM. For the same molecule, the TGI [26] was 1490 nM, the GI50 [27] was 525 nM and the TGI [27] was 1540 nM. For the same molecule, the GI50 [28] was 1250 nM, the TGI [28] was 3140 nM and the GI50 [29] was 1190 nM. For the same molecule, the TGI [29] was 2570 nM.

Source: PubChem BioAssay (NCI)
